Test results: a melting point compilation (Tetko et al.; mined from patent text by program, amines drawn as free bases though some values may be those of a salt)

Row | Structure (SMILES) | melting point [°C]
1 | CC(C)(COCc1cccc(Oc2ccccc2)c1)c1ccc(O)c(Cl)c1 | 68 to 69
2 | CCN(CC)CCCNC(=S)N1CC(Oc2ccc(C(F)(F)F)cc2)C1 | 109 to 110
3 | CCOCn1cc(F)c(=O)n(C(=O)c2cccc(C(=O)Oc3nc(OC(=O)c4ccc(Cl)cc4)ccc3C#N)c2)c1=O | 156 to 158
4 | O=C1COc2cc(F)c(N3C(=O)C4=C(CCCC4)C3=O)cc2N1Cc1ccon1 | 206 to 210
5 | COc1cccc(CSCCNC(=O)c2c([N+](=O)[O-])cccc2[N+](=O)[O-])c1 | 69 to 71
6 | Nc1c(F)c(Cl)c(O)c(Cl)c1F | 151
7 | O=C(NC(Cc1ccccc1)C(=O)O)OCc1ccc(-c2ccccc2)cc1 (stereo not given) | 142
8 | N#CC1C(=O)c2ccccc2Nc2ccccc21 (stereo not given) | 195 to 197
9 | CSc1nccn1-c1cccc(C(=O)CC(=O)Nc2cc(-c3ccccc3F)c(OC(C)(C)C)cc2NC(=O)OC(C)(C)C)c1 | 59 to 62
10 | COc1ccc(Oc2nc(Oc3ccc(OC)c(F)c3)nc(Oc3ccc(OC)c(F)c3)n2)cc1F | > 210
11 | CCCCCCCCCCCCCCCCCCC1(CO)OC(n2cccnc2=O)C(O)C1O (stereo not given) | 159
12 | CN(C)CCN(C)C(=O)[C@H]1CC[C@H](N(C)S(=O)(=O)c2ccc(C(F)(F)F)cc2)CC1 | 83
13 | CC(C)(C)OC(=O)N1CCC(CI)CC1 | 58 to 59
14 | Clc1nnc(Nc2cc(CN3CCCC3)cc(CN3CCCC3)c2)c2ccccc12 | 180 to 183
15 | O=CNc1ccc(C=O)cc1[N+](=O)[O-] | 183 to 191
16 | CC(C#N)=Cc1ccc(C=O)cc1 | 63 to 64
17 | Nc1cc(Cl)c(N2CCCCC2)cc1-c1noc(=O)[nH]1 | 186 to 189
18 | CC(C)(C)OC(=O)N1CCO[C@@H]2Cc3c(O)cccc3C[C@H]21 | 203 to 205
19 | O=C1CCCC(=O)C1=CC=Cc1ccccc1 | 116 to 118
20 | COC(=O)/C(=N\O)c1csc(NC(c2ccccc2)(c2ccccc2)c2ccccc2)n1 | 204 to 205
21 | O=C(NCc1cccc(Cl)c1)c1sc2ccc(Cl)cc2c1O | 184 to 186
22 | CC(C)c1ccc(S(=O)(=O)Nc2ccc(N3CCC(NCC(O)COc4ccc(O)c(S(C)=O)c4)CC3)nc2)cc1 (stereo not given) | 128 to 130

Row | Structure (SMILES) | melting point [°C]
23 | O=C1CCCC2=C1C(c1ccc(F)c(I)c1)C1=C(CCS1)N2 (stereo not given) | > 250
24 | O=C1NC(=O)C(c2c[nH]c3ccccc23)=C1c1ccccc1 | 256
25 | Fc1cccc2c(OCCc3ccc(Oc4ccc(C(F)(F)F)cn4)cc3)ncnc12 | 116 to 118
26 | N#Cc1c(C(F)(F)F)nn(-c2c(Cl)cc(C(F)(F)F)cc2Cl)c1N | 196 to 200
27 | CCc1cn(C2OC(CNC(=O)C(C)Oc3cc(OC)c(Br)cc3Br)C(O)C2F)c(=O)[nH]c1=O (stereo not given) | 223 to 224
28 | CCc1cc(-c2cc(-c3ccc(C(=O)O)cc3)ccc2OCCO)ccc1N(CC)CC | 206
29 | CCCCCCCCCCCCS(=O)(=O)N1CCCSC1=C(Cl)[N+](=O)[O-] | 76 to 77
30 | O=[N+]([O-])c1cc2c(Nc3cccc(Cl)c3)ncnc2cc1F | 223 to 225
31 | NC(=O)c1cc(OCCNCC(O)c2ccc(OCc3ccccc3)cc2)ccc1O (stereo not given) | 160 to 162
32 | C1=CC[C@@]2(Cc3ccccc3)CN(Cc3ccccc3)C[C@H]2C1 (relative stereo) | 142 to 144
33 | CC(c1oc2ccccc2c(=O)c1-c1cccc(F)c1)n1nc(-c2ccc(Cl)c(O)c2)c2c(N)ncnc21 (stereo not given) | 134 to 136
34 | N#CNC(=S)Nc1ccccc1Cl | 253 to 255
35 | CC(=O)c1ccc(-c2cc(C(C)(C)C)c(O)c(C(C)(C)C)c2)cc1 | 144 to 145
36 | CCCSC1=Nc2cc(C(=O)O)ccc2SN1Cc1ccc(-c2ccccc2C#N)cc1 | 53 to 68
37 | Oc1cccc([C@H]2CC[C@@H](c3ccccc3)N2)c1 (racemic) | 151
38 | Cc1c(Cc2cccc(C(F)(F)F)c2)oc2c(-c3cccc(C(=O)NCCS(C)(=O)=O)c3)cccc12 | 162 to 163
39 | CCC(NS(=O)(=O)c1ccc(Cl)cc1)P(=O)(Oc1ccccc1)Oc1ccccc1 (stereo not given) | 136 to 138
40 | CC(C)(C)C(=O)C(Oc1ccc(Cl)cc1)c1ccccc1 (stereo not given) | 103
41 | [N-]=[N+]=NS(=O)(=O)c1cccc(C(=O)O)c1 | 122 to 127
42 | FC(F)(F)c1cc(Cl)c(-n2cc(C3CC3(Br)Br)c(C=C(Br)Br)n2)c(Cl)c1 (stereo not given) | 106 to 107
43 | O=C(NCC1CCOCC1)NC12CC3CC(CC(C3)C1)C2 | 196 to 198
44 | NCCCn1c(-c2ccc(-c3ccccc3)cc2)csc1=Nc1ccccc1 | 50 to 54

The remaining lines, values ahead:

Row | melting point [°C] | Structure (SMILES)
45 | 32 to 33 | Cc1c(Cl)ccc(Br)c1Cl
46 | 307 to 311 | CCOC(=O)N1CCc2[nH]c(=O)n3nc(-c4ccccc4F)nc3c2C1
47 | 187 to 189 | Cn1cc(C(=O)NCc2ccc(Cl)cc2)c(=O)c2cc(CN3CCOCC3)cc(F)c21
48 | 185 to 188 | O=c1[nH][nH]c(=O)n1Cc1ccccc1
49 | > 320 | COc1ccc(-n2c(=O)c3c(Cc4ccccc4)n[nH]c3c3cccnc32)cc1
50 | 215 to 219 | Cn1ncnc1COc1nn2c(-c3ccccc3F)nncc2c1Br
51 | 258 to 260 | CCOc1cc2c(cc1OC)CCN(c1nc(N)c3cc(OC)c(OC)cc3n1)C2
52 | 142 to 143 | C=CCOc1ccc(OC(C)=O)c2ccc(=O)[nH]c12
53 | 112 to 113 | O=C(NCc1ccccn1)c1ccc(C(F)(F)F)cc1C(F)(F)F
54 | 149 to 151 | COc1ccc(Cc2oc3c(Cl)cc(CCC(=O)O)c(O)c3c2C)cc1
55 | 196 to 198 | COC(=O)c1ccc(-c2n[nH]c(C)n2)cc1Cl
56 | 142 to 146 | Clc1nc(C(c2ccccc2)(c2ccccc2)n2ccnc2)nc(Cl)c1Cl
57 | 150 to 154 | COc1ccc(CCCOc2ccc(C(=O)O)cc2)cc1OC
58 | 226 | OC1CSC(Oc2cnc(-c3ccncc3)c(Cl)c2)C(O)C1O (stereo not given)
59 | 116 to 117 | O=C(c1ccc(F)cc1)N1CCOC(c2nc(-c3ccc(F)cc3)no2)C1 (stereo not given)
60 | 71 to 75 | COC(=O)c1ccc(SC)nc1OC
61 | 133 to 134 | COC(=O)c1ccc(OCCc2nc(-c3ccccc3)oc2C)cc1O
62 | 190 to 192 | CC(=O)Nc1ccc2c(c1)CC(CC(=O)O)C2=O (single isomer, unassigned; (-))
63 | 180 to 181 | COc1cc(COc2nn(-c3ccccc3)cc2C=O)ccc1OCc1nc(N2CCCCC2)sc1C

Row | melting point [°C] | Structure (SMILES)
64 | 118 to 120 | O=c1[nH]nccc1NCCCNCCOc1cccc2c1OCCO2
65 | 75 to 76 | CCOC(=O)C1=Cc2ccc(OCc3ccccc3)cc2OCC1
66 | 289 to 290 | CC(C)(C)OC(=O)Nc1cc(C(=O)NN)ccn1
67 | 70 to 74 | C#CC1(OCc2ccc(Cl)cc2F)CCN(C(C)=O)CC1
68 | 178 to 180 | CCCCNc1nnc(NCCCC)c2cc3c(OC)cccc3cc12
69 | 132 to 133 | CCCn1c(=O)c(-c2ccccc2)c2n(c1=O)CCCS2
70 | 228 to 230 | CNc1nc(-c2cccc(NC(=O)c3ccncc3)c2)c2cc(OC)c(OC)cc2n1
71 | 98.5 to 101 | CCCc1cn(C(C)(C)C(=O)N(C)C)nc1-c1ccccc1
72 | 330 to 332 | Cc1c(-c2ccc(N)cc2)[nH]c2nccnc12
73 | 102 | CCOC(C)=NNc1ccc([N+](=O)[O-])cc1
74 | 129 to 132 | COc1cc(N)c(Cl)cc1C(=O)NCC1CCN(CCCCCOc2ccccc2)CC1
75 | 85 | CCC(C)N(C)C(=O)c1cc2ccccc2c(-c2ccccc2F)n1 (stereo not given)
76 | 135 to 136 | CCCC(Oc1ccccc1COc1ccc2oc(-c3nc(C(C)(C)C)cs3)cc2c1)C(=O)O (stereo not given)
77 | 64 to 66 | CCC(O)(CC)c1cc(Br)ccc1N
78 | 105 to 109 | Cc1cc(CN2C(=O)C(C3=NS(=O)(=O)c4c(CN(C)S(C)(=O)=O)cccc43)=C(O)C2C(C)(C)C)ccc1F (stereo not given)
79 | 141 to 142 | CCOC(=O)CCCOc1cccc2cc(/C(C)=C/C(=O)Nc3ccc(OC)cc3)oc12
80 | 172 | CCOc1nsc(NC(=O)N(C)C)c1C(N)=O
81 | 210 to 212 | CC(C)Nc1cccnc1N1CCN(C(=O)c2cc3cc(NS(=O)(=O)N4CCOCC4)ccc3[nH]2)CC1
82 | 210 to 212 | Cc1cccc(NC(=O)OC(C)(C)C)c1CNc1cccn2c(C=O)c(C)nc12

Row | melting point [°C] | Structure (SMILES)
83 | 142 to 144 | CC(C)(C)c1ccc(Cn2c(-c3ccc4c(c3)OCO4)nc3ccccc32)cc1
84 | 221 to 222 | CSc1nc(N)nc(-c2ccccc2)c1-c1ccc(=O)n(C(C)C)n1
85 | 88 to 89 | CC(C)(C)OC(=O)N1CCc2ccccc2CC1
86 | 135 to 137 | Cn1ncnc1COc1nn2c(-c3ccccc3F)nnc2cc1CC1CCCC1
87 | 89 to 90 | COCNC(=S)n1nc(Oc2ccc(C#N)cc2C(F)(F)F)cc1C
88 | 40 to 43 | CN1C(=O)C(c2ccc(OC(F)F)cc2)(c2cccc(COCCF)c2)N=C1N (stereo not given)
89 | 104 | CCOC(=O)Cc1cn2cc(Br)nc(NC)c2n1
90 | 116 to 117 | COc1cc(-c2ncnc(Cl)c2Cl)c(F)cc1Cl
91 | > 300 | Cc1ccnc2c1nc(CO)n2C
92 | 87 to 88 | CCOC(=O)C=Cc1cc(OC)c(OC)c([N+](=O)[O-])c1
93 | 68 to 69 | CC(C)C1Cc2cnc3c(c2C1=O)CCO3 (stereo not given)
94 | 130 to 131 | Cc1c(O)ccc2c1OCC(c1ccc3c(c1)OCO3)C2 (stereo not given)
95 | 186 | Cc1ccc(Cn2c(NC3CCNCC3)nc3cnccc32)o1
96 | 167 to 177 | O=C(O)c1ccc(Br)cc1COc1ccc2c(c1)OCO2
97 | 188 | N=C(NO)c1ccnc(N)c1
98 | 177 to 179 | Cc1cnc2c(c1)c(C#N)c(-c1ccc(S(=O)(=O)N[C@@H](C)C(F)(F)F)cn1)n2C1CCC1
99 | 143 to 147 | CCCCOc1cc2cc(C(=O)OC)c(C(=O)OC)c(-c3ccnc(Cl)c3)c2cc1OC
100 | 117 to 118 | Cc1ccc(C)c(OCCC(Cl)C(C)(C)C(=O)O)c1 (stereo not given)
